# Experimental data published in patent US10633419B2, “Immunomodulators” (BRISTOL-MYERS SQUIBB COMPANY, priority 2014, dated 2020).
# Starred links: 1 amine or outer side, 2 acyl side, 3 side chain; linkers in the order of their positions; H or OH if unused. Positions of bridges follow the written chain, without caps; N, C: chain ends. Non-standard residues stand in square brackets, D forms with d. Residues, ends and D or L forms follow the SMILES beside them. *: point of attachment. Succinyl(O-RRR-αToc) = Cc1c(C)c2c(c(C)c1OC(=O)CCC(=O)*)CC[C@@](C)(CCC[C@H](C)CCC[C@H](C)CCCC(C)C)O2; δOrn(Nα-Octadecanedioyl) = O=C(O)CCCCCCCCCCCCCCCCC(=O)N[C@@H](CCCN*)C(=O)O; X12 = O=C(O)CCCCCCCCCCCCCCCCCCC(=O)N[C@@H](CCC(=O)NCCCOCCOCCOCCCN*)C(=O)O; X6 = O=C(O)CCCCCCCCCCCCCCCCC(=O)N[C@@H](CCC(=O)NCCCOCCOCCOCCCN*)C(=O)O; Trp(1-CH2COOH) = N[C@@H](Cc1cn(CC(=O)O)c2ccccc12)C(=O)O; X21 = O=C([C@H](CC1=CC(CCCCCN[*:3])N=N1)N[*:1])[*:2]; X9 = O=C(O)CCCCCCCCCCCCCCCCC(=O)N[C@@H](CCN*)C(=O)O; NH(CH2)16COOH = O=C(O)CCCCCCCCCCCCCCCCN*; Phe(4-F) = N[C@@H](Cc1ccc(F)cc1)C(=O)O; βAsp = O=C(O)[C@H](CC(=O)[*:2])N[*:1]; Hyp = O=C(O)[C@@H]1C[C@@H](O)CN1; NMeNle = CCCC[C@H](NC)C(=O)O; Pip = O=C(O)[C@@H]1CCCCN1; NMeA = CN[C@@H](C)C(=O)O; Pra = C#CC[C@H](N)C(=O)O; Aun = NCCCCCCCCCCC(=O)O; Dab = NCC[C@H](N)C(=O)O; Dap = NC[C@H](N)C(=O)O; PEG1 = NCCOCCC(=O)O
# Molecular target: T1, PD-L1 (Homo sapiens, UniProt Q9NZQ7)
# T1 construct: hPDL1(19-239)-TVMV-His; made in house; host or cells: HEK293T
# T1 sequence (Q9NZQ7 with tags, fused parts or gaps): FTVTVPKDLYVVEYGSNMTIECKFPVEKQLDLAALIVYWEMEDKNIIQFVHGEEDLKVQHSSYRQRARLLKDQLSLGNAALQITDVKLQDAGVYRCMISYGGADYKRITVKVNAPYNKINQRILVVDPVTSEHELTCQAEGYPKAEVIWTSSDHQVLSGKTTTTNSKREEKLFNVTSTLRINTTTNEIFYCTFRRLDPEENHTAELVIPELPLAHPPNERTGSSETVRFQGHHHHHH
# Assay: PD-1/PD-L1 Homogenous Time-Resolved Fluorescence (HTRF) binding assay (PD-1-Ig/PD-L1-His)
# Details: not given
# Procedure, shortened: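 Inhibitors pre-incubated 15 min with PD-L1-His (10 nM final), then PD-1-Ig (20 nM final) added for 15 min in dPBS/0.1% BSA/0.05% Tween-20. Eu-cryptate anti-Ig (1 nM) and APC anti-His (20 nM) added, 30 min equilibration, 665/620 nm HTRF ratio read.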
row,SMILES,IC50 [nM]
1,CCCC[C@H]1C(=O)N(C)[C@@H](CCCC)C(=O)N[C@@H](CCC(=O)O)C(=O)N[C@H](C(=O)NCC(=O)N[C@@H](CC2=CC(CCCCCNC(=O)CCC(=O)Oc3c(C)c(C)c4c(c3C)CC[C@@](C)(CCC[C@H](C)CCC[C@H](C)CCCC(C)C)O4)N=N2)C(=O)NCC(N)=O)CSCC(=O)N[C@@H](Cc2ccc(O)cc2)C(=O)N(C)[C@@H](C)C(=O)N[C@@H](CC(=O)O)C(=O)N2CCC[C@H]2C(=O)N[C@@H](Cc2c[nH]cn2)C(=O)N[C@@H](CCCCN)C(=O)N2C[C@H](O)C[C@H]2C(=O)N[C@@H](Cc2c[nH]c3ccccc23)C(=O)N[C@@H](CCCCN)C(=O)N[C@@H](Cc2c[nH]c3ccccc23)C(=O)N1C (stereo partly shown) [Example 14051] ({CH2CO}-Y[NMeA]DPHK[Hyp]WKW[NMeNle][NMeNle]ECG[X21](Succinyl(O-RRR-αToc))G-NH2; thioether N-14),100 to 1600

# Same assay, conditions: inhibition of PD-1-Ig binding to PD-L1-TVMV-His; value given as number; read-out: HTRF IC50
row,IC50 [nM],SMILES
1,790,CCCC[C@H]1C(=O)N(C)[C@@H](CCCC)C(=O)N[C@@H](CC(C)C)C(=O)N[C@H](C(=O)NCC(=O)N[C@@H](Cc2cn(CC[C@H](NC(=O)CCCCCCCCCCCCCCCCC(=O)O)C(=O)O)nn2)C(N)=O)CSCC(=O)N[C@@H](Cc2ccc(O)cc2)C(=O)N(C)[C@@H](C)C(=O)N[C@@H](CC(N)=O)C(=O)N2CCC[C@H]2C(=O)N[C@@H](CN)C(=O)N[C@@H](CC(C)C)C(=O)N2C[C@H](O)C[C@H]2C(=O)N[C@@H](Cc2c[nH]c3ccccc23)C(=O)N[C@@H](CCN)C(=O)N[C@@H](Cc2cn(CC(=O)O)c3ccccc23)C(=O)N1C [Example 14096]

# Same assay, conditions: inhibition of PD-1-Ig binding to PD-L1-TVMV-His; value given as range class; read-out: HTRF IC50
row,SMILES,IC50 [nM]
1,CCCC[C@H]1C(=O)N(C)[C@@H](CCCC)C(=O)N[C@@H](CC(C)C)C(=O)N[C@H](C(=O)NCC(=O)NCC(=O)NCCCCCCCCCCCCCCCCC(=O)O)CSCC(=O)N[C@@H](Cc2ccc(O)cc2)C(=O)N(C)[C@@H](C)C(=O)N[C@@H](CC(N)=O)C(=O)N2CCC[C@H]2C(=O)N[C@@H](CN)C(=O)N[C@@H](CC(C)C)C(=O)N2C[C@H](O)C[C@H]2C(=O)N[C@@H](Cc2c[nH]c3ccccc23)C(=O)N[C@@H](CCN)C(=O)N[C@@H](Cc2cn(CC(=O)O)c3ccccc23)C(=O)N1C [Example 11189] ({CH2CO}-Y[NMeA]NP[Dap]L[Hyp]W[Dab][Trp(1-CH2COOH)][NMeNle][NMeNle]LCGG-{NH(CH2)16COOH}; thioether N-14),100 to 1600
2,CCCC[C@H]1C(=O)N(C)[C@@H](CCCC)C(=O)N[C@@H](CC(C)C)C(=O)N[C@H](C(=O)NCC(=O)N[C@@H](CC(=O)NCCCOCCOCCOCCCNC(=O)CC[C@H](NC(=O)CCCCCCCCCCCCCCCCC(=O)O)C(=O)O)C(=O)O)CSCC(=O)N[C@@H](Cc2ccc(O)cc2)C(=O)N(C)[C@@H](C)C(=O)N[C@@H](CC(=O)O)C(=O)N2CCC[C@H]2C(=O)N[C@@H](CN)C(=O)N[C@@H](CCC(=O)O)C(=O)N2C[C@H](O)C[C@H]2C(=O)N[C@@H](Cc2c[nH]c3ccccc23)C(=O)N[C@@H](CCN)C(=O)N[C@@H](Cc2cn(CC(=O)O)c3ccccc23)C(=O)N1C [Example 11178] ({CH2CO}-Y[NMeA]DP[Dap]E[Hyp]W[Dab][Trp(1-CH2COOH)][NMeNle][NMeNle]LCGD(X6)-OH; thioether N-14),0.3 to 9.9
3,CCCC[C@H]1C(=O)N(C)[C@@H](CCCC)C(=O)N[C@@H](CC(C)C)C(=O)N[C@H](C(=O)NCC(=O)NCCCCCCCCCCC(=O)O)CSCC(=O)N[C@@H](Cc2ccc(O)cc2)C(=O)N(C)[C@@H](C)C(=O)N[C@@H](CC(N)=O)C(=O)N2CCC[C@H]2C(=O)N[C@@H](CO)C(=O)N[C@@H](CCC(N)=O)C(=O)N2C[C@H](O)C[C@H]2C(=O)N[C@@H](Cc2c[nH]c3ccccc23)C(=O)N[C@@H](CO)C(=O)N[C@@H](Cc2cn(CC(=O)O)c3ccccc23)C(=O)N1C [Example 11084] ({CH2CO}-Y[NMeA]NPSQ[Hyp]WS[Trp(1-CH2COOH)][NMeNle][NMeNle]LCG[Aun]-OH; thioether N-14),10 to 99
4,CCCCCCCCCCCCCCCCNC(=O)CCCCCCCCCCNC(=O)[C@@H]1CSCC(=O)N[C@@H](Cc2ccc(O)cc2)C(=O)N(C)[C@@H](C)C(=O)N[C@@H](CC(N)=O)C(=O)N2CCC[C@H]2C(=O)N[C@@H](Cc2cnc[nH]2)C(=O)N[C@@H](CC(C)C)C(=O)N2C[C@H](O)C[C@H]2C(=O)N[C@@H](Cc2c[nH]c3ccccc23)C(=O)N[C@@H](CO)C(=O)N[C@@H](Cc2c[nH]c3ccccc23)C(=O)N(C)[C@@H](CCCC)C(=O)N(C)[C@@H](CCCC)C(=O)N[C@@H](CCCNC(=N)N)C(=O)N1 [Example 11115],100 to 1600
5,CCCC[C@H]1C(=O)N(C)[C@@H](CCCC)C(=O)N[C@@H](CC(C)C)C(=O)N[C@H](C(=O)N[C@@H](CC(=O)O)C(=O)N[C@@H](CC(=O)NCCCOCCOCCOCCCNC(=O)CC[C@H](NC(=O)CCCCCCCCCCCCCCCCCCC(=O)O)C(=O)O)C(=O)O)CSCC(=O)N[C@@H](Cc2ccc(O)cc2)C(=O)N(C)[C@@H](C)C(=O)N[C@@H](CC(N)=O)C(=O)N2CCC[C@H]2C(=O)N[C@@H](CN)C(=O)N[C@@H](CC(C)C)C(=O)N2C[C@H](O)C[C@H]2C(=O)N[C@@H](Cc2c[nH]c3ccccc23)C(=O)N[C@@H](CCN)C(=O)N[C@@H](Cc2cn(CC(=O)O)c3ccccc23)C(=O)N1C [Example 11252] ({CH2CO}-Y[NMeA]NP[Dap]L[Hyp]W[Dab][Trp(1-CH2COOH)][NMeNle][NMeNle]LCDD(X12)-OH; thioether N-14),10 to 99

# The next lines start with the values.
row,IC50 [nM],SMILES
1,0.3 to 9.9,C#CC[C@H](NC(=O)CNC(=O)[C@@H]1CSCC(=O)N[C@@H](Cc2ccc(O)cc2)C(=O)N(C)[C@@H](C)C(=O)N[C@@H](CC(=O)O)C(=O)N2CCC[C@H]2C(=O)N[C@@H](Cc2c[nH]cn2)C(=O)N[C@@H](CCCCN)C(=O)N2C[C@H](O)C[C@H]2C(=O)N[C@@H](Cc2c[nH]c3ccccc23)C(=O)N[C@@H](CCCCN)C(=O)N[C@@H](Cc2cn(CC(=O)O)c3ccccc23)C(=O)N(C)[C@@H](CCCC)C(=O)N(C)[C@@H](CCCC)C(=O)N[C@@H](CCC(=O)O)C(=O)N1)C(=O)O [INT 1300Y] ({CH2CO}-Y[NMeA]DPHK[Hyp]WK[Trp(1-CH2COOH)][NMeNle][NMeNle]ECG[Pra]-OH; thioether N-14)
2,10 to 99,CCCCCCCCCCCCCCCC(=O)N[C@@H](CCn1cc(C[C@H](NC(=O)CNC(=O)[C@@H]2CSCC(=O)N[C@@H](Cc3ccc(O)cc3)C(=O)N(C)[C@@H](C)C(=O)N[C@@H](CC(=O)O)C(=O)N3CCC[C@H]3C(=O)N[C@@H](Cc3c[nH]cn3)C(=O)N[C@@H](CCC(N)=O)C(=O)N3C[C@H](O)C[C@H]3C(=O)N[C@@H](Cc3c[nH]c4ccccc34)C(=O)N[C@@H](CO)C(=O)N[C@@H](Cc3c[nH]c4ccccc34)C(=O)N(C)[C@@H](CCCC)C(=O)N(C)[C@@H](CCCC)C(=O)N[C@@H](CCC(=O)O)C(=O)N2)C(=O)NCC(N)=O)nn1)C(=O)O [Example 14062]
3,10 to 99,CCCC[C@H]1C(=O)N(C)[C@@H](CCCC)C(=O)N[C@@H](CC(C)C)C(=O)N[C@H](C(=O)NCC(=O)N[C@@H](CCC(=O)NCCC[C@H](NC(=O)CCCCCCCCCCCCCCCCC(=O)O)C(=O)O)C(=O)O)CSCC(=O)N[C@@H](Cc2ccc(F)cc2)C(=O)N2CCCC[C@H]2C(=O)N[C@@H](CC(=O)O)C(=O)N2CCC[C@H]2C(=O)N[C@@H](CN)C(=O)N[C@@H](CC(C)C)C(=O)N2C[C@H](O)C[C@H]2C(=O)N[C@@H](Cc2c[nH]c3ccccc23)C(=O)N[C@@H](CCN)C(=O)N[C@@H](Cc2cn(CC(=O)O)c3ccccc23)C(=O)N1C [Example 13146] ({CH2CO}-[Phe(4-F)][Pip]DP[Dap]L[Hyp]W[Dab][Trp(1-CH2COOH)][NMeNle][NMeNle]LCGE(δOrn(Nα-Octadecanedioyl))-OH; thioether N-14)
4,10 to 99,CCCCCCCCCCCCCCCC(=O)N[C@@H](CCn1cc(C[C@H](NC(=O)CNC(=O)[C@@H]2CSCC(=O)N[C@@H](Cc3ccc(O)cc3)C(=O)N(C)[C@@H](C)C(=O)N[C@@H](CC(=O)O)C(=O)N3CCC[C@H]3C(=O)N[C@@H](Cc3c[nH]cn3)C(=O)N[C@@H](CCCCN)C(=O)N3C[C@H](O)C[C@H]3C(=O)N[C@@H](Cc3c[nH]c4ccccc34)C(=O)N[C@@H](CCCCN)C(=O)N[C@@H](Cc3c[nH]c4ccccc34)C(=O)N(C)[C@@H](CCCC)C(=O)N(C)[C@@H](CCCC)C(=O)N[C@@H](CCC(=O)O)C(=O)N2)C(=O)N[C@@H](CC(=O)O)C(N)=O)nn1)C(=O)O [Example 14061]
5,0.3 to 9.9,CCCC[C@H]1C(=O)N(C)[C@@H](CCCC)C(=O)N[C@@H](CCCNC(=N)N)C(=O)N[C@H](C(=O)NCC(=O)N[C@@H](Cc2cn(CC[C@H](NC(=O)CCCCCCCCCCCCCCC(=O)O)C(=O)O)nn2)C(N)=O)CSCC(=O)N[C@@H](Cc2ccc(O)cc2)C(=O)N(C)[C@@H](C)C(=O)N[C@@H](CC(N)=O)C(=O)N2CCC[C@H]2C(=O)N[C@@H](CN)C(=O)N[C@@H](CC(C)C)C(=O)N2C[C@H](O)C[C@H]2C(=O)N[C@@H](Cc2c[nH]c3ccccc23)C(=O)N[C@@H](CO)C(=O)N[C@@H](Cc2c[nH]c3ccccc23)C(=O)N1C [Example 14066]
6,0.3 to 9.9,CCCC[C@H]1C(=O)N(C)[C@@H](CCCC)C(=O)N[C@@H](CC(C)C)C(=O)N[C@H](C(=O)NCC(=O)N[C@@H](CC(=O)NCCOCCC(=O)NCC[C@H](NC(=O)CCCCCCCCCCCCCCCCC(=O)O)C(=O)O)C(=O)O)CSCC(=O)N[C@@H](Cc2ccc(O)cc2)C(=O)N2CCCC[C@H]2C(=O)N[C@@H](CC(N)=O)C(=O)N2CCC[C@H]2C(=O)N[C@@H](CN)C(=O)N[C@@H](CC(C)C)C(=O)N2C[C@H](O)C[C@H]2C(=O)N[C@@H](Cc2c[nH]c3ccccc23)C(=O)N[C@@H](CCN)C(=O)N[C@@H](Cc2cn(CC(=O)O)c3ccccc23)C(=O)N1C [Example 13161] ({CH2CO}-Y[Pip]NP[Dap]L[Hyp]W[Dab][Trp(1-CH2COOH)][NMeNle][NMeNle]LCG[βAsp][PEG1]-X9; thioether N-14)
